In patent US6620828B2, “Thiazole compounds and pharmaceutical compositions for inhibiting protein kinases and methods for their use” (Agouron Pharmaceuticals, Inc., priority 1999, dated 2003):
“And” between values parts separate entries of the source, which are not always exact repeats. Equal entries are not always repeated.

How the values were obtained:
[1] = target: T1, FGF-R1 (Homo sapiens, UniProt P11362, C488A/C584S/L457V); assay: FGF-R spectrophotometric assay; type: biochemical; conditions: Table 2; for FGF-R % inhibition @ 5: at 5 (head μM)
T1 construct: starting from the endogenous methionine residue 456 to glutamate 766; made in house; host or cells: baculovirus vector expression system
T1 sequence (P11362 456-766 L457V/C488A/C584S): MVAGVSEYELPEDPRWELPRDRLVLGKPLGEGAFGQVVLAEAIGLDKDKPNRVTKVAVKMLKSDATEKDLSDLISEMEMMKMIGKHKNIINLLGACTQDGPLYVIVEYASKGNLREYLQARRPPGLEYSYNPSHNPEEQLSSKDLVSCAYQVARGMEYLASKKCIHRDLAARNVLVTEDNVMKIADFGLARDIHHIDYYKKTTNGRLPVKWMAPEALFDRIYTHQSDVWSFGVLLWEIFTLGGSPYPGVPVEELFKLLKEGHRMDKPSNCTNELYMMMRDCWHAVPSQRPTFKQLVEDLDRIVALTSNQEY
In short: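 Kinase domain (Met456–Glu766, baculovirus-expressed) used at 50 nM in a spectrophotometric assay run as for VEGF-R2. Substrates were 2 mM ATP and 15 mM poly(E4Y1).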

[2] = target: T2, phosphorylated VEGF-R2Δ50 (FLVK-P) (Homo sapiens, UniProt P35968, DEL940-989/E990V); assay: VEGF-R2 coupled spectrophotometric (FLVK-P) assay; type: biochemical; conditions: spectrophotometric assay
T2 construct: VEGF-R2Δ50 contains residues 806-939 and 990-1171; made in house; host or cells: baculovirus/insect cells
T2 sequence (P35968 with tags, fused parts or gaps DEL940-989/E990V limits assumed): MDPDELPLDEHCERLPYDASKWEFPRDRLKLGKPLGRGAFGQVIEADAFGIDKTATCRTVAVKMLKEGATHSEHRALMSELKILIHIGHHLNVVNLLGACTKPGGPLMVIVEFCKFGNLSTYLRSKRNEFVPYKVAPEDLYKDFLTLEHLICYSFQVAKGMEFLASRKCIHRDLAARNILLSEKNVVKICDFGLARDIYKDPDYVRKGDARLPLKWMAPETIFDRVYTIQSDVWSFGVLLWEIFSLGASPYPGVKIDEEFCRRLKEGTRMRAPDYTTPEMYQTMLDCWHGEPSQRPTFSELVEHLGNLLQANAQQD
In short: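 Baculovirus-expressed human VEGF-R2Δ50 (residues 806-939/990-1171, E990V) was autophosphorylated with 3 mM ATP, 40 mM MgCl2 for 2 h at 4° C. ADP formation was coupled via PK/LDH to NADH oxidation, read at 340 nm, with 5.1 mM poly(E4Y1), 1 mM ATP, 25 mM MgCl2, Hepes pH 7.5. Ki came from activity across compound concentrations.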

[3] = target: T3, CDK4/Cyclin D3 complex (Homo sapiens, UniProt P11802); assay: CDK4/Cyclin D assay; type: biochemical; conditions: Table 2
T3 construct: made in house; host or cells: insect cells co-infected with baculovirus vectors
T3 sequence (P11802 whole entry): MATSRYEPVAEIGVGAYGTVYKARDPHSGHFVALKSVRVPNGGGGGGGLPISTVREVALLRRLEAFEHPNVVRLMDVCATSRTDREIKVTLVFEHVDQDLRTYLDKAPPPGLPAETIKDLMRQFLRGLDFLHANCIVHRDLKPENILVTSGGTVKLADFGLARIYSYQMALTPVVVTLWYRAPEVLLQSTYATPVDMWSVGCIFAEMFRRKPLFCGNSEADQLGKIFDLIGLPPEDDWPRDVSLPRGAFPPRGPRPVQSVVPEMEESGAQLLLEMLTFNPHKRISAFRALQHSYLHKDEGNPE
T3 sequence (P30281 whole entry partner): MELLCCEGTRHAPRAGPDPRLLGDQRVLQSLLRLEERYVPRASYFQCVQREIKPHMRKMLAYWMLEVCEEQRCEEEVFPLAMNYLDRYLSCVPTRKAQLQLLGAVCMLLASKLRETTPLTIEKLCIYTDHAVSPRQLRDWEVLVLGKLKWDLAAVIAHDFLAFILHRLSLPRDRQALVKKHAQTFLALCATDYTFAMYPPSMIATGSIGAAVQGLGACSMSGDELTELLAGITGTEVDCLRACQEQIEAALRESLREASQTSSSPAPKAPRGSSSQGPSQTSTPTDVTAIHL
In short: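 Insect-cell-expressed CDK4/cyclin D3 (50 nM) phosphorylating His-tagged Rb fragment (residues 386-928) with 25 μM [^32P]ATP in HEPES pH 7.4, MgCl2, 2% DMSO; 20 min at 30 °C, EDTA stop. Filter-captured 32P by phosphorimager; apparent Ki from competitive or tight-binding inhibition fits.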

[4] = target: T4, FAKcd409 (Homo sapiens, UniProt Q05397, P410T); assay: FAK HTS assay; type: biochemical; conditions: 10 uM compound, HTS Delphia assay
T4 construct: comprises residues methionine 409 to glutamate 689; made in house; host or cells: baculovirus vector expression system
T4 sequence (Q05397 409-689 P410T): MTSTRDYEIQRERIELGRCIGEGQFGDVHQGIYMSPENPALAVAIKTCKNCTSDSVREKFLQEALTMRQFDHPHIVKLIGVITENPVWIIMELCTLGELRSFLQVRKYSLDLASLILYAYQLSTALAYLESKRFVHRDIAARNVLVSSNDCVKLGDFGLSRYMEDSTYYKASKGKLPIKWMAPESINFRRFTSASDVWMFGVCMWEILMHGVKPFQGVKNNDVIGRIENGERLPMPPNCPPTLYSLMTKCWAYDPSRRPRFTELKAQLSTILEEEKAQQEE

[5] = target: CDK2/Cyclin A complex (Homo sapiens, UniProt P24941); assay: CDK2/Cyclin A assay; type: biochemical; conditions: Table 2
In short: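 Radiometric assay: 150 nM CDK2/cyclin A (insect-cell CDK2, truncated cyclin A) phosphorylates His-tagged Rb fragment (residues 386-928) with 25 μM ATP plus [32P]ATP, pH 7.4 HEPES, 2% DMSO, 30 °C for 20 min. Filter-captured product counted by phosphorimager; apparent Ki from competitive or tight-binding inhibition fits.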

[6] = target: T5, CHK1 (Homo sapiens, UniProt O14757); assay: CHK1 high-throughput screening; type: biochemical; conditions: for % inhibition @ 20 μM: Table 4, repeated entries per example; for inhibition at 20 µM: read-out: % inhibition @ 20 μM, Table 4, repeated entries per example
T5 sequence (O14757 1-476): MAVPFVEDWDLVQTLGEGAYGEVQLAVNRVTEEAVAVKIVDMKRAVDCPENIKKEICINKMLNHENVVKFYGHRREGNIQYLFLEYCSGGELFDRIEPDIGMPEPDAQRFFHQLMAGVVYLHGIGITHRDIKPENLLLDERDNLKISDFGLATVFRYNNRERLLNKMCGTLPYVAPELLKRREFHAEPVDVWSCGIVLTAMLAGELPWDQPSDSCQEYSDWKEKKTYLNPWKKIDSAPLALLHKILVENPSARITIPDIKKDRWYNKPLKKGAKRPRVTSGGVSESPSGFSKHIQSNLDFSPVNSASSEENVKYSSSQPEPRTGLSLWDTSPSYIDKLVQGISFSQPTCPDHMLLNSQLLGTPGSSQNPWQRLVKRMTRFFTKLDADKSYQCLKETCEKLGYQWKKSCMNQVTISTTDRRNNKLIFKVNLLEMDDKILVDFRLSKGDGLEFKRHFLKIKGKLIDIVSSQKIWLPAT

[7] = target: T6, phosphorylated VEGF-R2Δ50 (Homo sapiens, UniProt P35968, DEL940-989/E990V); assay: VEGF-R2 ELISA assay; type: biochemical; conditions: Table 2; * determined with ELISA assay; read-out: FLVK-P Ki
T6 construct: VEGF-R2Δ50 contains residues 806-939 and 990-1171; made in house; host or cells: baculovirus/insect cells
T6 sequence (P35968 with tags, fused parts or gaps DEL940-989/E990V limits assumed): as the sequence (P35968 with tags, fused parts or gaps DEL940-989/E990V limits assumed) above
In short: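 Pre-autophosphorylated human VEGF-R2Δ50 (residues 806-939/990-1171, E990V; baculovirus) at 0.8 nM was run with 2 μM biotin-gastrin(1-17), 20 μM ATP, 26 mM MgCl2, 2 mM MnCl2, pH 7.5 Hepes. Phosphopeptide was captured on streptavidin and detected by anti-pTyr-HRP/ABTS at 405 nm; Ki came from activity at varying compound concentrations.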

[8] = system: human umbilical vein endothelial cells (HUVEC); assay: HUVEC proliferation assay; type: cell-based; conditions: Homo sapiens, HUVEC
In short: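 Exponentially growing HUVEC were serum-starved 24 h (F12K + 1% FBS), pre-treated 1 h with compound (0.1% DMSO final), then stimulated with 6 ng/ml VEGF. Proliferation was read 72 h later by MTT reduction (A595). IC50 came from seven 0.5-log concentrations in triplicate; screens gave % inhibition relative to VEGF-only and starved wells.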

[9] = system: lung cancer cells (line MV522); assay: Cancer cell proliferation (MV522) assay; type: cell-based
[10] = target: T7, FL-CHK1 (Homo sapiens, UniProt O14757); assay: CHK1 assay; type: biochemical; conditions: Table 2; read-out: CHK-1 Ki
T7 construct: C-terminally His-tagged full-length human CHK1 (FL-CHK1); 6xHis (C); made in house; host or cells: baculovirus/insect cells
T7 sequence (O14757 1-476): T5 sequence (O14757 1-476)
In short: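 Full-length human CHK1 with C-terminal 6×His tag, made in baculovirus/insect cells, 10 nM, phosphorylating 0.125 mM Syntide-2 with 0.15 mM ATP in 50 mM Tris pH 7.5, 25 mM MgCl2, 400 mM NaCl. PK/LDH-coupled NADH oxidation read at 340 nm. Ki from initial rates over varied compound concentrations.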

SMILES	Ki [3]	melting point	Ki [5]	% inhibition of FAK ([4]; 10 µM)	% inhibition @ 20 μM [6]	Ki [7]	inhibition at 20 µM [6]	also measured
COc1cc(Nc2nc(N)c(-c3nc(-c4ccc(O)c(O)c4)cs3)s2)cc(OC)c1OC [A(12), 4-[4′-Amino-2′-(3,4,5-trimethoxy-phenylamino)-[2,5′]bithiazolyl-4-yl]-benzene-1,2-diol]	2700 nM	132 to 137 °C (dec.)	6700 nM	–	–	–	–	Ki [1]: 190000 nM; Ki ([2]; Table 2): 34 nM; % inhibition of FAK [4]: −16%
Nc1nc(Nc2ccc(S(N)(=O)=O)cc2)sc1-c1nc(C(=O)c2ccccc2)cs1 [A(67), 4-(4′-Amino-4-benzoyl-[2,5′]bithiazolyl-2′-ylamino)-benzenesulfonamide]	670 nM	255 to 260 °C (dec.)	15 nM	−29% and −33%	–	–	–	Ki ([2]; Table 2): 110 nM
COc1ccccc1-c1csc(-c2sc(Nc3ccc(S(N)(=O)=O)cc3)nc2N)n1 [A(3), 4-[4′-Amino-4-(2-methoxy-phenyl)-[2,5′]bithiazolyl-2′-ylamino]-benzenesulfonamide]	8400 nM	231 to 235 °C (dec.)	2500 nM	–	2.8% and −1.9%	64000 nM	–	% inhibition of FAK [4]: −9%
Cc1nc(-c2sc(Nc3ccc(S(N)(=O)=O)cc3)nc2N)sc1Cc1ccc(F)cc1 [A(15), 4-[4′-Amino-5-(4-fluoro-benzyl)-4-methyl-[2,5′]bithiazolyl-2′-ylamino]-benzenesulfonamide]	7800 nM	130 to 135 °C (dec.)	2700 nM	−9% and −7% and 0%	−4.1% and −1.2%	25000 nM	–	–
COc1cc(Nc2nc(N)c(-c3nc(-c4cccc(C(=O)Nc5ccc6nc(C)ccc6c5)c4)cs3)s2)cc(OC)c1OC [A(35), 3-[4′-Amino-2′-(3,4,5-trimethoxy-phenylamino)-[2,5′]bithiazolyl-4-yl]-N-(2-methyl-quinolin-6-yl)-benzamide]	–	–	–	−5% and −9% and −10%	–	390000 nM	–	–
C=CCOc1cc(O)cc(-c2csc(-c3sc(Nc4ccc(S(N)(=O)=O)cc4)nc3N)n2)c1 [A(62), 4-[4-(3-Allyloxy-5-hydroxyphenyl)-4′-amino-[2,5′]bithiazolyl-2′-ylamino]-benzenesulfonamide]	4400 nM	200 to 202 °C	530 nM	6%	12.2%	–	7.4%	inhibition at 10 µM [4]: 7%
Nc1nc(Nc2ccc(S(N)(=O)=O)cc2)sc1-c1nc(/C=C/C=C/c2ccccc2)cs1 [A(66), 4-[4′-Amino-4-(4-phenyl-buta-1,3-dienyl)-[2,5′]bithiazolyl-2′-ylamino]-benzenesulfonamide]	–	193 to 195 °C (dec.)	1100 nM	−38% and −39%	3.6% and 6.6% and 9.1%	–	–	–

More lines, main results first:

Ki [3]	melting point	Ki [5]	% inhibition of FAK ([4]; 10 µM)	% inhibition @ 20 μM [6]	Ki [7]	inhibition at 20 µM [6]	SMILES	also measured
9100 nM	129 to 133 °C (dec.)	13400 nM	−2% and −5% and −4%	–	–	–	COc1cc(Nc2nc(N)c(-c3nc(-c4ccc(O)cc4)cs3)s2)cc(OC)c1OC [A(10), 4-[4′-Amino-2′-(3,4,5-trimethoxy-phenylamino)-[2,5′]bithiazolyl-4-yl]-phenol]	FGF-R % inhibition @ 5 [1]: 45% @; Ki ([2]; Table 2): 28 nM
–	214 to 216 °C	–	–	–	–	42.5%	COc1cc(Nc2nc(N)c(-c3nc(-c4cc(O)ccc4Br)cs3)s2)cc(OC)c1OC [A(26), 3-[4′-Amino-2′-(3,4,5-trimethoxy-phenylamino)-[2,5′]bithiazolyl-4-yl]-4-bromophenol]	FGF-R % inhibition @ 5 [1]: 52% @; Ki ([2]; Table 2): 14 nM; % inhibition of FAK [4]: 72%; IC50 ([8]; Table 2): > 1000 nM; IC50 ([9]; MV522, Table 2): 7500 nM
–	–	–	−10% and −8%	–	–	4%	Nc1nc(Nc2cccnc2)sc1-c1nc(-c2cccc(NC(=O)c3ccccc3)c2)cs1 [A(53), 3-(4′-Amino-4-(3-benzamidophenyl)-[2,5′]bithiazolyl-2′-ylamino)-pyridine]	Ki ([2]; Table 1): 24 nM; IC50 ([8]; Table 1): 370 nM; IC50 ([9]; MV522, Table 1): > 10000 nM
–	208 to 212 °C (dec.)	–	60% and 47% and 57% and 90% and 88%	–	100 nM	19.7%	COc1cc(Nc2nc(N)c(-c3nc(-c4cc(O)ccc4O)cs3)s2)cc(OC)c1OC [A(25), 2-(4′-Amino-2′-(3,4,5-trimethoxy-phenylamino)-[2,5′]bithiazolyl-4-yl]-benzene-1,4-diol]	Ki [10]: 290 nM
2100 nM	190 to 193 °C (dec.)	150 nM	−31% and −39%	3.2% and 2.5% and 8.2%	–	–	COc1ccc(/C=C/c2csc(-c3sc(Nc4ccc(S(N)(=O)=O)cc4)nc3N)n2)cc1O [A(65), 4-{4′-Amino-4-[2-(3-hydroxy-4-methoxy-phenyl)-ethenyl]-[2,5′]bithiazolyl-2′-ylamino}-benzenesulfonamide]	–
–	180 to 183 °C (dec.)	–	−6% and −5% and 4%	–	1900 nM	–	COc1cc(Nc2nc(N)c(-c3nc(-c4ccc(F)cc4F)cs3)s2)cc(OC)c1OC [A(9), 4-(2,4-Difluoro-phenyl)-N^2′-(3,4,5-trimethoxy-phenyl)-[2,5′]bithiazolyl-2′,4′-diamine]	inhibition at 100 µM ([3]; at 100 (printed 100 or 100 μM)): < 0%; CDK2 % inhibition @ 100 ([5]; at 100 (printed 100 or 100 μM)): 29% @
–	198 to 202 °C	–	32% and 29%	–	–	60.8%	COc1cc(Nc2nc(N)c(-c3nc(-c4cc(O)cc(O)c4)cs3)s2)cc(OC)c1OC [A(18), 5-[4′-Amino-2′-(3,4,5-trimethoxy-phenylamino)-[2,5′]bithiazolyl-4-yl]-benzene-1,3-diol]	FGF-R % inhibition @ 5 [1]: 38% @; inhibition at 10 µM [4]: 25%
